Laboratory results reported in US9895344B2, “Treating various disorders with 7,8-dihydroxyflavone and derivatives thereof” (EMORY UNIVERSITY, priority 2008, dated 2018).

Tests used:
[1] = system: hippocampal neurons; assay: Oxygen-Glucose Deprivation (OGD) of hippocampal neurons; type: cell-based
Method: To explore whether 7,8-dihydroxyflavone exerts any protective effect on hippocampal neurons in Oxygen-Glucose Deprivation (OGD), primary preparations of neurons were treated with BDNF or various flavone derivatives for 30 minutes prior to OGD.

[2] = target: T1, TrkB (Mus musculus, UniProt P15209); assay: Trk activation in cortical neurons from wild-type and TrkB-null pups: TrkB; type: cell-based, mice; conditions: wild-type but not TrkB-null neurons, FIG. 21
T1 construct: from tissue; host or cells: mouse brain
T1 sequence (P15209 32-821): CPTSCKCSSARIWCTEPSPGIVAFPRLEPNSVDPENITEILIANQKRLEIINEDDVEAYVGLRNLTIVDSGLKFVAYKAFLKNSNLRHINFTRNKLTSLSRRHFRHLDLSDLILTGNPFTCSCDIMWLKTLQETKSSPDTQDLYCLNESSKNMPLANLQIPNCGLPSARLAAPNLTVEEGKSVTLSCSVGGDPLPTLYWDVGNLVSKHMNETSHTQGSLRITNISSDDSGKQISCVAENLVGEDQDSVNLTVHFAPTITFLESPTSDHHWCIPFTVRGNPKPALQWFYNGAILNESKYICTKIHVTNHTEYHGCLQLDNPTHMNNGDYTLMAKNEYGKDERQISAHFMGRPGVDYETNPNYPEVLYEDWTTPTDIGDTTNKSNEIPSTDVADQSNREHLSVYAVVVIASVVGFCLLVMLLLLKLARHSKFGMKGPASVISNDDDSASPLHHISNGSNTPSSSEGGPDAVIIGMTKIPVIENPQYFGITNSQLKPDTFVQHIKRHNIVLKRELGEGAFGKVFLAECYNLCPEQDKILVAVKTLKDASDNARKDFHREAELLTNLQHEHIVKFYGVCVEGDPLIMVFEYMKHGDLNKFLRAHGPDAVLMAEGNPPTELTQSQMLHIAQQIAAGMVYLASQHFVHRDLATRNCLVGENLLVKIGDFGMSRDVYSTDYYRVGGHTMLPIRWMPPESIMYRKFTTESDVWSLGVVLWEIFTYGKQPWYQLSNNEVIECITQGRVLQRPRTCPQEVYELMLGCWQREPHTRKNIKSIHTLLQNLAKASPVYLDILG
Method: To determine whether 7,8-dihydroxyflavone can selectively activate TrkB receptor and prevent neuronal cell death, cortical neurons were prepared from homozygous pups of TrkB+/−mice, which were mated to the same genotype. […] Glutamate nonselectively elicited weak TrkA phosphorylation in both wild-type and TrkB-null neurons (FIG. 21, row 3).

[3] = target: T1, TrkB; assay: Immunoblotting of brain lysates from forced swim test mice: TrkB; type: in vivo; conditions: 5 mg/kg, 21 days oral, anti-p-TrkB 817, FIG. 35
Method: To explore whether 4′-DMA-7,8-DHF and 7,8-DHF have any antidepressant effect, a forced swim test (6 minutes, immobility recorded in the last 4 minutes) was conducted after chronic treatment of male C57BL/6J mice (8 mice/group) for 21 days via oral injection.

[4] = system: Akt; assay: Western analysis of Akt phosphorylation in hippocampal neurons; type: cell-based
Method: To further examine whether 7,8-dihydroxyflavone can stimulate TrkB-mediated downstream signaling cascades, Western analysis was performed.
To probe the time course of 7,8-dihydroxyflavone triggered TrkB activation, hippocampal neurons were treated with 7,8-dihydroxyflavone at 500 nM and phosphorylation of Erk and Akt was determined over time by Western analysis. […] Stimulation of Erk and Akt by 7,8-dihydroxyflavone also occurred in a dose dependent manner.

[5] = target: TrkB (Rattus norvegicus, UniProt Q63604); assay: TrkB receptor dimerization in cotransfected HEK293 cells (GST pull-down); type: cell-based; set-up: expressed in transfected cells; host or cells: HEK293
TrkB (Rattus norvegicus, UniProt Q63604), sequence (Q63604 32-821): as the sequence (P15209 32-821) above, with T3M, S9T, A10T, V32I, R63K, S84G, M153T, L185I, S394T, S770N counted along it
TrkB (Rattus norvegicus, UniProt Q63604), sequence (Q63604 32-821): as the sequence (P15209 32-821) above, with T3M, S9T, A10T, V32I, R63K, S84G, M153T, L185I, S394T, S770N counted along it
Method: BDNF is known to bind the TrkB receptor and provoke its dimerization (Barbacid, J. Neurobiol., 25:1386-1403, 1994; Klein et al, Cell, 66:395-403, 1991). To explore whether 7,8-dihydroxyflavone triggers TrkB receptor dimerization, HEK293 cells were cotransfected with GST-TrkB and HA-TrkB or HA-TrkA. The cells were then treated with BDNF or small flavone compounds (0.5 μM) for 30 minutes. The cells were harvested, washed once in PBS, and lysed in 1 ml lysis buffer (50 mM Tris, ph 7.4, 150 mM NaCl, 1 mM EDTA, 0.5% Triton X-100, 1.5 mM Na3VO4, 50 mM NaF, 10 mM sodium pyrophosphate, 10 mM sodium β-glycerophosphate, 1 mM phenylmethylsulfonyl fluoride (PMSF), 5 mg/ml aprotinin, 1 mg/ml leupeptin, 1 mg/ml pepstatin A) and centrifuged for 10 minutes at 14,000×g at 4° C. The supernatant was transferred to a fresh tube and transfected TrkB receptor was separated from the supernatant with glutathione beads, and the coprecipitated proteins were resolved on SDS-PAGE.

[6] = target: GST-TrkB ICD (Rattus norvegicus, UniProt Q63604); assay: In vitro binding assay with immobilized GST-TrkB ICD on glutathione beads, UV-spectrometry of eluate; conditions: 500 nM, 4° C., 30 minutes, FIG. 17
GST-TrkB ICD, sequence (Q63604 454-821): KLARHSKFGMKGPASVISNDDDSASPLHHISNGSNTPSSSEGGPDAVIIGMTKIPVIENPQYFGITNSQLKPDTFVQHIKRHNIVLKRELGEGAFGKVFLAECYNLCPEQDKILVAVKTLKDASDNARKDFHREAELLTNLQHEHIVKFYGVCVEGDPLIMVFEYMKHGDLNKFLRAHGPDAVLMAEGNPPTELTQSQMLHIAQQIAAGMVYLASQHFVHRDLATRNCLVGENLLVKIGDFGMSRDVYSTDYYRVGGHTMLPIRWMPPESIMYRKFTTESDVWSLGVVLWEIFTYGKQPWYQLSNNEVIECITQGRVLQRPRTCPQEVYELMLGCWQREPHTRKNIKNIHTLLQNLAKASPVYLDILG
Method: (§1) To further explore the association of 7,8-dihydroxyflavone and the TrkB receptor, an in vitro binding assay was performed. Increasing volumes of GST-TrkB ECD and GST-TrkB ICD were bound to glutathione beads to a total of 250 uL, and 500 nM 7,8-dihydroxyflavone in 250 μl (20% DMSO/80% PBS) was incubated with the beads in the column at 4° C. for 30 minutes. After the incubation, the elute fractions were collected and the concentration of eluted 7,8-dihydroxyflavone was analyzed by UV-spectrometry at a wavelength of 410 nm.

[7] = target: T1, TrkB; assay: Time course of TrkB activation in mouse brain; type: in vivo, C57BL/6J mice; conditions: 1 mg/kg, oral injection, FIG. 28
Method: To compare the stimulatory effect on TrkB receptor in mouse brain, 1 mg/kg of these compounds was injected into C57BL/6J mice and monitored TrkB activation at different time points (see FIG. 28). […] In contrast, 7,8-DHF triggered TrkB activation 2 h after oral injection and peaked at 4 h and TrkB activity progressively faded away. The TrkB activity was demonstrable even at 16 h (FIG. 28).

[8] = system: KA-provoked apoptosis; assay: KA-provoked neuronal cell death in TrkB F616A knockin mice, intraperitoneal (caspase-3 immunoblot); type: in vivo
Method: To determine if 1NMPP1 would make neurons treated with 7,8-dihydroxyflavone vulnerable to KA-provoked neuronal cell death, TrkF616A knockin mice were fed with 1NMPP1 (25 mM) in drinking water one day prior to pharmacological reagent treatment. The next day, the mice were intraperitoneally injected with KA (25 mg/kg), or 7,8-dihydroxyflavone (5 mg/kg) 4 hours prior to KA injection. The control mice were injected with either KA or 7,8-dihydroxyflavone alone, or the mice were administered 7,8-dihydroxyflavone 4 hours before KA. In 4 days, the mice were sacrificed and the brains were homogenated and ultracentrifuged. The supernatant was employed for SDS-PAGE and immunoblotting analysis.

[9] = target: GST-TrkB ECD (Rattus norvegicus, UniProt Q63604); assay: In vitro binding assay with immobilized GST-TrkB ECD on glutathione beads, UV-spectrometry of eluate; conditions: 500 nM, 4° C., 30 minutes, FIG. 17
GST-TrkB ECD, sequence (Q63604 32-429 limits assumed): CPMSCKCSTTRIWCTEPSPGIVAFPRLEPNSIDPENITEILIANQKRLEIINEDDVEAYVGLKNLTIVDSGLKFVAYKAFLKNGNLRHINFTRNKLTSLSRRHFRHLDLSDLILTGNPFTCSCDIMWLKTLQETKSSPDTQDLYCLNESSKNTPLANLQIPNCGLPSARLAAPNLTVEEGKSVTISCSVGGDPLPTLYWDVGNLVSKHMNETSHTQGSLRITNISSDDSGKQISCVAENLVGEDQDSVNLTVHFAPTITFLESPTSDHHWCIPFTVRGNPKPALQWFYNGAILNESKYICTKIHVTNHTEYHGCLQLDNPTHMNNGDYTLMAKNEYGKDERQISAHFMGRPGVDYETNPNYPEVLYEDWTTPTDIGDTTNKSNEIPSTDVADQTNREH
Method: as §1

O=c1cc(-c2ccccc2)oc2c(O)c(O)ccc12 [7,8-dihydroxyflavone]
protective effect in OGD ([1]; 30 minutes prior to OGD, apoptotic analysis in 3 hours, FIG. 7 left): most potent protective effects among the compounds | titration assay of protection in OGD ([1]; FIG. 7 right): protects neurons in a dose-dependent manner | TrkB activation in wild-type neurons [2]: specifically activates TrkB | TrkB activation in mouse brain [3]: provoke TrkB | time at which Akt phosphorylation peaked ([4]; 500 nM): 30 min | time at which Akt phosphorylation was seen ([4]; 500 nM): 10 min | time by which Akt phosphorylation faded ([4]; 500 nM): 180 min | Akt activation (Western) ([4]; FIG. 9): activated | concentration at which Akt activation was observed ([4]; treatment for 30 minutes): 100 nm | dimerization of TrkB with TrkA receptor ([5]; GST-TrkB and HA-TrkA cotransfected): failed to dimerize with TrkA receptor | TrkB dimerization ([5]; GST-TrkB and HA-TrkB, 0.5 μM, 30 minutes, FIG. 14): provoked TrkB dimerization to a similar manner as BDNF | concentration of eluted compound as GST-TrkB ICD volumes increased [6]: remained constant | TrkB activity at 16 h [7]: demonstrable | time at which TrkB activation was elicited [7]: 2 h | time at which TrkB activity peaked [7]: 4 h | KA-provoked apoptosis ([8]; 5 mg/kg intraperitoneally 4 hours prior to KA (25 mg/kg)): suppressed KA-provoked apoptosis | protective effect against KA after 1NMPP1 pretreatment ([8]; 1NMPP1 in drinking water one day prior): abolished | apoptosis in TrkB F616A mice, treatment alone without KA ([8]; FIG. 24): no effect on apoptosis | concentration of eluted compound as GST-TrkB ECD volumes increased [9]: decreased
